From patent US7393872B2, “Sodium channel blocker compositions and the use thereof” (Euro-Celtique S.A., priority 1999, dated 2008)

What was measured:
[1] = system: Chung model of neuropathic rats; test: Tactile allodynia in the Chung model of peripheral neuropathy; assay type: in vivo, rat; conditions: given alone, FIG. 2
Description: Male Sprague-Dawley rats weighing between 200-225 g were anesthetized with halothane (1-3% in a mixture of 70% air and 30% oxygen) and their body temperature controlled during anesthesia through use of a homeothermic blanket. A 2-cm dorsal midline incision was then made at the L5 and L6 level and the para-vertibral muscle groups retracted bilaterally. L5 and L6 spinal nerves were then be exposed, isolated, and tightly ligated with 6-0 silk suture. A sham operation was performed exposing the contralateral L5 and L6 spinal nerves as a negative control.
Tactile Allodynia: Rats were transferred to an elevated testing cage with a wire mesh floor and allowed to acclimate for five to ten minutes. A series of Semmes-Weinstein monofilaments were applied to the plantar surface of the hindpaw to determine the animal's withdrawal threshold. […] This procedure was repeated with subsequent lesser filaments until there was no response and the lightest filament that elicited a response was recorded. […] For each animal, three measurements were made at every time point to produce an average withdrawal threshold determination. Tests were performed prior to and at 1, 2, and 24 hrs post drug administration. Tactile allodynia and mechanical hyperalgesia tests were conducted concurrently.

[2] = system: chronic pain; conditions: clinical trials; 15-20% of patients treated with placebo showed effectiveness; cited from earlier work

Structure (SMILES)	tactile antiallodynia effect (withdrawal threshold) ([1]; 1.25 mg/kg p.o.)	tactile antiallodynia effect (withdrawal threshold) ([1]; 25 mg/kg s.c.)	patient population that showed effectiveness [2]
NC(=O)NN=Cc1ccc(Oc2ccc(F)cc2)cc1 [Co 102862, 4-(4′-fluoro-phenoxy)benzaldehyde semicarbazone]	moderate antiallodynia effect		
NCC1(CC(=O)O)CCCCC1 [gabapentin, 1-(aminomethyl)cyclohexaneacetic acid]		minimum or no effect	less than 50%
